One assay deals with PDE10A enzyme (Homo sapiens (Human), UniProt Q9Y233). The assay is described as follows: PDE10A inhibition assay. The class given is biochemical. The settings on record: tritium labeled cAMP substrate 5 nM. The method, then: Active PDE10A enzyme is prepared in a number of ways for use in PDE assays (Loughney, K. et al. Gene 1999, 234, 109-117; Fujishige, K. et al. Eur J Biochem. 1999, 266, 1118-1127 and Soderling, S. et al. Proc. Natl. Acad. Sci. 1999, 96, 7071-7076). PDE10A can be expressed as full-length proteins or as truncated proteins, as long as they express the catalytic domain. PDE10A can be prepared in different cell types, for example insect cells or E. coli. An example of a method to obtain catalytically active PDE10A is as follows: The catalytic domain of human PDE10A (amino acids 440-779 from the sequence with accession number NP 006652) is amplified from total human brain total RNA by standard RT-PCR and is cloned into the BamH1 and Xho1 sites of the pET28a vector (Novagen). Expression in coli is performed according to standard protocols. Briefly, the expression plasmids are transformed into the BL21(DE3) E. coli strain, and 50 mL cultures inoculated with the cells allowed to grow to an OD600 of 0.4-0.6 before protein expression is induced with 0.5 mM IPTG. Following induction, the cells are incubated overnight at room temperature, after which the cells are collected by centrifugation. Cells expressing PDE10A are resuspended in 12 mL (50 mM TRIS-HCl-pH8.0, 1 mM MgCl2 and protease inhibitors). The cells are lysed by sonication, and after all cells are lysed, TritonX100 is added according to Novagen protocols.
A PDE10A assay may for example, be performed as follows: The assay is performed in 60 uL samples containing a fixed amount of the relevant PDE enzyme (sufficient to convert 20-25% of the cyclic nucleotide substrate), a buffer (50 mM HEPES7.6; 10 mM MgCl2; 0.02% Tween20), 0.1 mg/ml BSA, 225 pCi of ^3H-labelled cyclic nucleotide substrate, tritium labeled cAMP to a final concentration of 5 nM and varying amounts of inhibitors. Reactions are initiated by addition of the cyclic nucleotide substrate, and reactions are allowed to proceed for one hr at room temperature before being terminated through mixing with 15 uL 8 mg/mL yttrium silicate SPA beads (Amersham). The beads are allowed to settle for one hr in the dark before the plates are counted in a Wallac 1450 Microbeta counter. The measured signal can be converted to activity relative to an uninhibited control (100%) and IC50 values can be calculated using the Xlfit extension to EXCEL.

Assay [1] deals with rats. The settings on record: cited from earlier work.
Assay [2] relates to rats. The settings on record: cited from earlier work. This is another data set of the same source.
Assay [3] has as its system rats. The settings on record: cited from earlier work. This is another data set of the same source.

These results are taken from US8927738B2, “2-arylimidazole derivatives as PDE10A enzyme inhibitors” (H. Lundbeck A/S, priority 2009, dated 2015).

What is called IC50 is the point on the concentration scale where inhibition reaches its midpoint. High values mean weaker potency in that assay, low ones greater potency in that assay.

Sequence of PDE10A enzyme (Q9Y233 716-1055): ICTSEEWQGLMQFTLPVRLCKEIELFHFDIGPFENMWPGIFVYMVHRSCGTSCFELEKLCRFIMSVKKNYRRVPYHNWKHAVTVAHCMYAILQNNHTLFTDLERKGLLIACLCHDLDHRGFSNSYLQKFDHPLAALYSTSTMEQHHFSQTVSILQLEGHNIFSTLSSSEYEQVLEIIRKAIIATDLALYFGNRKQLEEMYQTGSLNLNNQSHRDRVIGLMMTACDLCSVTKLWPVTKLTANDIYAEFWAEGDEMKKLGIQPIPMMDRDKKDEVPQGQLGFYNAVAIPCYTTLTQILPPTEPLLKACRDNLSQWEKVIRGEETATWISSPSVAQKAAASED

With `Cc1ncc(C)n2nc(CCc3cn(C)c(-c4ccco4)n3)nc12` [2-[2-(2-Furan-2-yl-1-methyl-1H-imidazol-4-yl)-ethyl]-5,8-dimethyl-[1,2,4]triazolo[1,5-a]pyrazine], the midpoint of inhibition against PDE10A enzyme, the IC50, lay at 1.1 nM.

On PDE10A enzyme, `Cc1ccc(C)n2nc(CCc3cn(C)c(-c4ccco4)n3)nc12` [2-[2-(2-Furan-2-yl-1-methyl-1H-imidazol-4-yl)-ethyl]-5,8-dimethyl-[1,2,4]triazolo[1,5-a]pyridine] showed a half-maximal inhibitory concentration (IC50) of 0.75 nM.

As to `Cc1ncc(C)n2nc(CCc3c[nH]c(-c4ccco4)n3)nc12` [2-[2-(2-Furan-2-yl-1H-imidazol-4-yl)-ethyl]-5,8-dimethyl-[1,2,4]triazolo[1,5-a]pyrazine], the IC50 against PDE10A enzyme amounted to 0.97 nM. `Cc1ccc(C)n2nc(CCc3c[nH]c(-c4ccco4)n3)nc12` [2-[2-(2-Furan-2-yl-1H-imidazol-4-yl)-ethyl]-5,8-dimethyl-[1,2,4]triazolo[1,5-a]pyridine]: inhibition against PDE10A enzyme was half-maximal at 0.62 nM (IC50). For the molecule `Cc1ncc(C)n2nc(CCc3c[nH]c(-c4ccoc4)n3)nc12` [2-[2-(2-Furan-3-yl-1H-imidazol-4-yl)-ethyl]-5,8-dimethyl-[1,2,4]triazolo[1,5-a]pyrazine], the half-maximal inhibitory concentration (IC50) on PDE10A enzyme was found to be 0.27 nM. `Cc1ccc(C)n2nc(CCc3c[nH]c(-c4ccoc4)n3)nc12` [2-[2-(2-Furan-3-yl-1H-imidazol-4-yl)-ethyl]-5,8-dimethyl-[1,2,4]triazolo[1,5-a]pyridine] had an IC50 at PDE10A enzyme of 0.65 nM. The same measure, in the same setting: under `Cc1ncc(C)n2nc(CCc3c[nH]c(-c4ccc(F)cc4)n3)nc12` [2-{2-[2-(4-Fluoro-phenyl)-1H-imidazol-4-yl]-ethyl}-5,8-dimethyl-[1,2,4]triazolo[1,5-a]pyrazine] stands 12 nM; under `Cc1ncc(C)n2nc(CCc3cn(C)c(-c4ccccc4)n3)nc12` [5,8-Dimethyl-2-[2-(1-methyl-2-phenyl-1H-imidazol-4-yl)-ethyl]-[1,2,4]triazolo[1,5-a]pyrazine], 45 nM; under `Cc1ncc(C)n2nc(CCc3cn(C)c(-c4nccs4)n3)nc12` [5,8-Dimethyl-2-[2-(1-methyl-2-thiazol-2-yl-1H-imidazol-4-yl)-ethyl]-[1,2,4]triazolo[1,5-a]pyrazine], 7.7 nM.

As to `Cc1ncc(C)n2nc(CCc3cn(C)c(-c4cscn4)n3)nc12` [5,8-Dimethyl-2-[2-(1-methyl-2-thiazol-4-yl-1H-imidazol-4-yl)-ethyl]-[1,2,4]triazolo[1,5-a]pyrazine], half-maximal inhibition at PDE10A enzyme (IC50) was put at 11 nM. On PDE10A enzyme, `Cc1ncc(C)n2nc(CCc3cn(C)c(-c4cncs4)n3)nc12` [5,8-Dimethyl-2-[2-(1-methyl-2-thiazol-5-yl-1H-imidazol-4-yl)-ethyl]-[1,2,4]triazolo[1,5-a]pyrazine] showed a 50% inhibitory concentration (IC50) of 22 nM.

As for `Cc1ncc(C)n2nc(CCc3cn(C)c(-c4cccs4)n3)nc12` [5,8-Dimethyl-2-[2-(1-methyl-2-thiophen-2-yl-1H-imidazol-4-yl)-ethyl]-[1,2,4]triazolo[1,5-a]pyrazine], half-maximal inhibition against PDE10A enzyme (IC50) required 1 nM.

At PDE10A enzyme, `Cc1ncc(C)n2nc(CCc3c[nH]c(-c4ccccc4)n3)nc12` [5,8-Dimethyl-2-[2-(2-phenyl-1H-imidazol-4-yl)-ethyl]-[1,2,4]triazolo[1,5-a]pyrazine] came in with an IC50 of 4.2 nM. Consider `Cc1ncc(C)n2nc(CCc3c[nH]c(-c4nccs4)n3)nc12` [5,8-Dimethyl-2-[2-(2-thiazol-2-yl-1H-imidazol-4-yl)-ethyl]-[1,2,4]triazolo[1,5-a]pyrazine], for which, on PDE10A enzyme, half-maximal inhibition (IC50) required 0.63 nM. The same measure, in the same setting: under `Cc1ccc(C)n2nc(CCc3c[nH]c(-c4nccs4)n3)nc12` [5,8-Dimethyl-2-[2-(2-thiazol-2-yl-1H-imidazol-4-yl)-ethyl]-[1,2,4]triazolo[1,5-a]pyridine] stands 1.6 nM. On PDE10A enzyme, `Cc1ncc(C)n2nc(CCc3c[nH]c(-c4cscn4)n3)nc12` [5,8-Dimethyl-2-[2-(2-thiazol-4-yl-1H-imidazol-4-yl)-ethyl]-[1,2,4]triazolo[1,5-a]pyrazine] yielded an IC50 of 3.5 nM. Still for that read-out and setting: next, `Cc1ccc(C)n2nc(CCc3c[nH]c(-c4cscn4)n3)nc12` [5,8-Dimethyl-2-[2-(2-thiazol-4-yl-1H-imidazol-4-yl)-ethyl]-[1,2,4]triazolo[1,5-a]pyridine]: 3.5 nM; `Cc1ncc(C)n2nc(CCc3c[nH]c(-c4cncs4)n3)nc12` [5,8-Dimethyl-2-[2-(2-thiazol-5-yl-1H-imidazol-4-yl)-ethyl]-[1,2,4]triazolo[1,5-a]pyrazine]: 6.5 nM.

In the case of `Cc1ccc(C)n2nc(CCc3c[nH]c(-c4cncs4)n3)nc12` [5,8-Dimethyl-2-[2-(2-thiazol-5-yl-1H-imidazol-4-yl)-ethyl]-[1,2,4]triazolo[1,5-a]pyridine], on PDE10A enzyme, inhibition was half-maximal at 3.1 nM (IC50).

Regarding `Cc1ncc(C)n2nc(CCc3c[nH]c(-c4cccs4)n3)nc12` [5,8-Dimethyl-2-[2-(2-thiophen-2-yl-1H-imidazol-4-yl)-ethyl]-[1,2,4]triazolo[1,5-a]pyrazine], half-maximal inhibition against PDE10A enzyme (IC50) required 0.4 nM. Still for that read-out and setting: next, `Cc1ccc(C)n2nc(CCc3c[nH]c(-c4cccs4)n3)nc12` [5,8-Dimethyl-2-[2-(2-thiophen-2-yl-1H-imidazol-4-yl)-ethyl]-[1,2,4]triazolo[1,5-a]pyridine]: 0.34 nM. On to `Cc1ccc(-c2nc(CCc3nc4c(C)ncc(C)n4n3)cn2C)o1` [5,8-Dimethyl-2-{2-[1-methyl-2-(5-methyl-furan-2-yl)-1H-imidazol-4-yl]-ethyl}-[1,2,4]triazolo[1,5-a]pyrazine], for which the half-maximal inhibitory concentration (IC50) against PDE10A enzyme was 3.5 nM.

On to `CCc1ccc(C)n2nc(CCc3cn(C)c(-c4ccccc4)n3)nc12` [8-Ethyl-5-methyl-2-[2-(1-methyl-2-phenyl-1H-imidazol-4-yl)-ethyl]-[1,2,4]triazolo[1,5-a]pyridine], for which, at PDE10A enzyme, the IC50 is 23 nM. Same read-out and setting: under `COc1ccc(C)n2nc(CCc3cn(C)c(-c4ccccc4)n3)nc12` [8-Methoxy-5-methyl-2-[2-(1-methyl-2-phenyl-1H-imidazol-4-yl)-ethyl]-[1,2,4]triazolo[1,5-a]pyridine] stands 79 nM; under `COc1ccc(C)n2nc(CCc3cn(C)c(-c4cccs4)n3)nc12` [8-Methoxy-5-methyl-2-[2-(1-methyl-2-thiophen-2-yl-1H-imidazol-4-yl)-ethyl]-[1,2,4]triazolo[1,5-a]pyridine], 9 nM. As to `COc1ccc(C)n2nc(CCc3c[nH]c(-c4ccccc4)n3)nc12` [8-Methoxy-5-methyl-2-[2-(2-phenyl-1H-imidazol-4-yl)-ethyl]-[1,2,4]triazolo[1,5-a]pyridine], the IC50 against PDE10A enzyme worked out at 5.9 nM. Consider `COc1ccc(Cc2nccc3cc(OC)c(OC)cc23)cc1OC` [Papaverine, papaverine], for which the “hyperactivity induced by PCP” value with rats [1] was “reduced hyperactivity”. Also, the “catalepsy caused on its own” value in the assay with rats [2] (papaverine alone) is “did not cause catalepsy on its own”. The “effect on the cataleptic effect of haloperidol” value in the assay on rats [2] (with the D2 receptor antagonist haloperidol) is on record as “potentiated the cataleptic effect”. In addition, in the assay with rats [3], the “reduction of amphetamine induced hyperactivity” value is on record as “insignificant”.
